Measurements as given in the supplement of paper PMC10331698.
± gives the standard deviation of the averaged measurements.

Assays:
Assay in all cases: level (log10 ratio to DMSO vehicle control); higher = higher biomarker level / cell amount than vehicle control
[1] = compound: OCC(F)(F)OC(F)(F)C(F)(F)OC(F)(F)C(F)(F)OC(F)(F)CO [1H,1H,11H,11H-Perfluorotetraethylene glycol] (in DMSO)
Description: (§1)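 BioMAP Diversity Plus panel of 12 human primary cell co-culture systems (3C, 4H, LPS, SAg, BT, BF4T, BE3C, CASM3C, HDF3CGF, KF3CT, MyoF, Mphg). Compounds were added 1 h before stimulation and left for 24 h (MyoF 48 h; BT 72 h for soluble read-outs or 6 d for IgG). Biomarkers were read by ELISA, cytotoxicity by SRB, PBMC viability and proliferation by Alamar Blue. Each well value was divided by the mean of 8 DMSO control wells on the same plate and log10 transformed; duplicate blinded samples were tested at 4 concentrations.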

[2] = compound: O=C(O)C(F)(F)C(F)(F)C(F)(F)C(F)(F)C(F)(F)C(F)(F)C(F)(F)C(F)(F)F [Perfluorononanoic acid] (in DMSO)
Description: as §1

[3] = compound: O=C(O)C(F)(F)C(F)(F)C(F)(F)C(F)(F)C(=O)O [Octafluoroadipic acid] (in DMSO)
Description: as §1

[4] = compound: O=S(=O)(O)C(F)(F)C(F)(F)C(F)(F)C(F)(F)C(F)(F)C(F)(F)C(F)(F)F [Perfluoroheptanesulfonic acid] (in DMSO)
Description: as §1

[5] = compound: C=C(C)C(=O)OCCC(F)(F)C(F)(F)C(F)(F)C(F)(F)C(F)(F)C(F)(F)C(F)(F)C(F)(F)F [8:2 Fluorotelomer methacrylate] (in DMSO)
Description: as §1

[6] = compound: OCC(F)(F)C(F)(F)C(F)(F)C(F)(F)C(F)(F)C(F)(F)CO [1H,1H,8H,8H-Perfluorooctane-1,8-diol] (in DMSO)
Description: as §1

[7] = compound: OCC(F)(F)C(F)(F)C(F)(F)C(F)F [1H,1H,5H-Perfluoropentanol] (in DMSO)
Description: as §1

Row | Test System | level (log10) ([1]; 6700 nM) | level (log10) ([1]; 20000 nM) | level (log10) ([1]; 60000 nM) | level (log10) ([2]; 6700 nM) | level (log10) ([2]; 20000 nM) | level (log10) ([3]; 6700 nM) | level (log10) ([3]; 20000 nM) | level (log10) ([3]; 60000 nM) | level (log10) ([4]; 1500 nM) | level (log10) ([4]; 4400 nM) | level (log10) ([4]; 13000 nM) | level (log10) ([4]; 40000 nM) | level (log10) ([5]; 6700 nM) | level (log10) ([5]; 20000 nM) | level (log10) ([6]; 6700 nM) | level (log10) ([6]; 20000 nM) | level (log10) ([6]; 60000 nM) | level (log10) ([7]; 6700 nM) | level (log10) ([7]; 20000 nM) | level (log10) ([7]; 60000 nM)
1 | HDF3CGF:SRB | -0.0225 ± 0.043 | -0.023 ± 0.1 | -0.0555 ± 0.077 | 0.014 ± 0.0014 | -0.0155 ± 0.026 | -0.033 ± 0.023 | 0.0135 ± 0.037 | -0.0005 ± 0.042 | -0.042 ± 0.028 | -0.045 ± 0.011 | -0.0065 ± 0.015 | 0.035 ± 0.1 | -0.021 ± 0.055 | -0.0015 ± 0.046 | -0.043 ± 0.052 | -0.0135 ± 0.056 | -0.0405 ± 0.1 | -0.0275 ± 0.0064 | -0.0025 ± 0.03 | -0.0015 ± 0.037
2 | HDF3CGF:TIMP-1 | -0.023 ± 0.089 | 0.0015 ± 0.11 | -0.073 ± 0.092 | -0.0225 ± 0.026 | -0.039 ± 0.03 | -0.0055 ± 0.03 | 0.022 ± 0.059 | 0.023 ± 0.055 | -0.004 ± 0.013 | -0.001 ± 0.071 | -0.002 ± 0.045 | 0.012 ± 0.1 | -0.0115 ± 0.036 | -0.0375 ± 0.074 | -0.002 ± 0.0071 | -0.003 ± 0.0085 | 0.019 ± 0.025 | -0.012 ± 0.031 | -0.0155 ± 0.025 | 0.006 ± 0.027
3 | HDF3CGF:TIMP-2 | -0.0285 ± 0.011 | -0.046 ± 0.11 | -0.121 ± 0.07 | 0.0105 ± 0.033 | 0.0805 ± 0.026 | 0.007 ± 0.0085 | 0.02 ± 0.023 | 0.0055 ± 0.0078 | -0.0185 ± 0.0064 | -0.0395 ± 0.029 | -0.0115 ± 0.028 | -0.045 ± 0.0014 | -0.001 ± 0.013 | -0.0395 ± 0.012 | 0.003 ± 0.0014 | 0.0255 ± 0.0035 | 0.0145 ± 0.00071 | -0.0525 ± 0.086 | -0.0265 ± 0.067 | -0.0175 ± 0.087
4 | KF3CT:CCL2/MCP-1 | -0.025 ± 0.024 | -0.044 ± 0.024 | -0.005 ± 0.0042 | -0.0975 ± 0.012 | -0.157 ± 0.03 | -0.0165 ± 0.043 | -0.0265 ± 0.00071 | 0.0285 ± 0.026 | -0.0115 ± 0.022 | -0.011 ± 0.011 | 0.0015 ± 0.0021 | 0.0125 ± 0.022 | -0.0235 ± 0.00071 | -0.008 ± 0.033 | -0.017 ± 0.0099 | -0.0235 ± 0.03 | 0.0005 ± 0.081 | 0.0055 ± 0.026 | -0.0495 ± 0.087 | 0.007 ± 0.13
5 | KF3CT:CD54/ICAM-1 | -0.016 ± 0.0085 | -0.008 ± 0.02 | -0.006 ± 0.035 | -0.0235 ± 0.013 | -0.0455 ± 0.037 | -0.0045 ± 0.0035 | -0.0105 ± 0.0078 | -0.009 ± 0.018 | -0.013 ± 0.0085 | 0.001 ± 0.0099 | -0.0085 ± 0.0078 | 0.0005 ± 0.0078 | -0.017 ± 0.013 | 0.004 ± 0.021 | -0.009 ± 0.0042 | 0.0015 ± 0.0092 | -0.01 ± 0.018 | -0.002 ± 0.0071 | -0.003 ± 0.023 | 0.004
6 | KF3CT:CXCL8/IL-8 | -0.0085 ± 0.022 | -0.0255 ± 0.021 | -0.0125 ± 0.011 | -0.0045 ± 0.016 | 0.013 ± 0.028 | -0.0015 ± 0.015 | 0.0105 ± 0.0092 | 0.012 ± 0.017 | 0.001 ± 0.014 | -0.0095 ± 0.03 | 0 ± 0.03 | 0.0065 ± 0.022 | -0.013 ± 0.0071 | -0.0275 ± 0.015 | -0.0015 ± 0.019 | -0.0215 ± 0.023 | 0 | 0.0155 ± 0.016 | 0.0205 ± 0.021 | 0.0415 ± 0.049
7 | KF3CT:CXCL9/MIG | -0.006 ± 0.031 | -0.001 ± 0.013 | -0.013 ± 0.018 | -0.006 ± 0.027 | -0.007 ± 0.0042 | 0.003 ± 0.014 | 0.0075 ± 0.016 | 0.0155 ± 0.0021 | -0.005 ± 0.0071 | -0.006 ± 0.0099 | -0.005 ± 0.0028 | 0.014 ± 0.0042 | -0.0035 ± 0.0092 | 0.004 ± 0.0014 | 0.007 ± 0.011 | 0.0025 ± 0.00071 | 0.0105 ± 0.005 | -0.009 ± 0.0085 | -0.006 ± 0.017 | 0.008 ± 0.023
8 | KF3CT:CXCL10/IP-10 | -0.0035 ± 0.018 | -0.0065 ± 0.0064 | -0.027 ± 0.016 | -0.016 ± 0.018 | -0.0085 ± 0.021 | 0 ± 0.0028 | -0.001 ± 0.0028 | -0.001 ± 0.014 | 0.006 ± 0.0014 | -0.0045 ± 0.00071 | -0.005 ± 0.0042 | -0.014 ± 0.0028 | -0.0125 ± 0.0035 | -0.011 ± 0.0028 | -0.003 ± 0.0028 | -0.001 ± 0.014 | -0.009 ± 0.0085 | -0.0125 ± 0.033 | 0.0025 ± 0.00071 | 0.0365 ± 0.00071
9 | KF3CT:IL-1alpha | 0.009 ± 0.018 | 0.003 ± 0.037 | 0.029 ± 0.034 | -0.0365 ± 0.053 | -0.105 ± 0.043 | -0.005 ± 0.013 | -0.0245 ± 0.011 | 0.004 ± 0.02 | -0.0015 ± 0.0035 | 0.013 ± 0.0071 | 0 ± 0.0028 | 0.0095 ± 0.013 | -0.0145 ± 0.036 | -0.028 ± 0.031 | -0.0085 ± 0.022 | -0.0095 ± 0.0064 | 0.0225 ± 0.057 | -0.0465 ± 0.05 | -0.0475 ± 0.056 | 0.0535 ± 0.025
10 | KF3CT:MMP-9 | 0.0225 ± 0.021 | 0.062 ± 0.03 | 0.0725 ± 0.0078 | -0.0575 ± 0.053 | -0.097 ± 0.034 | -0.0065 ± 0.005 | 0.0085 ± 0.015 | 0.0175 ± 0.015 | 0.0045 ± 0.025 | -0.002 ± 0.0042 | -0.01 ± 0.0042 | 0.0345 ± 0.013 | -0.003 ± 0.023 | -0.014 ± 0.018 | -0.003 ± 0.0028 | 0.009 ± 0.0014 | 0.058 ± 0.0099 | -0.024 ± 0.045 | -0.008 ± 0.0071 | 0.0125 ± 0.04
11 | KF3CT:PAI-I | -0.003 ± 0.02 | -0.0115 ± 0.0064 | -0.033 ± 0.0042 | 0.065 ± 0.011 | -0.0095 ± 0.032 | -0.0135 ± 0.0092 | -0.0135 ± 0.011 | -0.002 ± 0.017 | 0.001 ± 0.028 | 0.002 ± 0.035 | -0.01 ± 0.034 | -0.034 ± 0.0099 | -0.022 ± 0.037 | -0.015 ± 0.013 | -0.004 ± 0.0085 | -0.008 ± 0.0071 | -0.0155 ± 0.0021 | 0.0105 ± 0.098 | 0.062 ± 0.035 | -0.0045 ± 0.011
12 | KF3CT:SRB | -0.003 ± 0.014 | 0.003 ± 0.0071 | -0.012 ± 0.013 | -0.011 ± 0.0057 | -0.0215 ± 0.0021 | -0.0065 ± 0.005 | 0.003 ± 0.013 | 0.001 ± 0.018 | 0.0015 ± 0.005 | -0.0015 ± 0.0064 | -0.0005 ± 0.00071 | -0.0005 ± 0.005 | -0.003 | 0.004 ± 0.0042 | -0.003 | -0.004 ± 0.0085 | -0.0085 ± 0.0092 | 0.003 ± 0.0028 | 0.0025 ± 0.0035 | 0.0025 ± 0.0035
13 | KF3CT:TIMP-2 | -0.008 ± 0.017 | 0.023 ± 0.0085 | 0.0295 ± 0.0092 | -0.074 ± 0.027 | -0.002 ± 0.045 | -0.001 ± 0.025 | -0.0015 ± 0.005 | 0.0105 ± 0.0092 | -0.0225 ± 0.013 | -0.0035 ± 0.03 | -0.0195 ± 0.016 | 0.0105 ± 0.0021 | -0.018 ± 0.014 | -0.0335 ± 0.033 | 0.0065 ± 0.042 | -0.0055 ± 0.018 | -0.006 ± 0.016 | -0.018 ± 0.013 | 0.025 ± 0.045 | 0.0285 ± 0.029
14 | KF3CT:uPA | 0.005 ± 0.0057 | 0.018 ± 0.0099 | 0.024 ± 0.031 | 0.0005 ± 0.018 | 0.009 ± 0.011 | -0.0045 ± 0.039 | -0.0065 ± 0.028 | -0.0055 ± 0.026 | 0.008 | -0.0165 ± 0.00071 | -0.0195 ± 0.005 | -0.0055 ± 0.0021 | -0.0095 ± 0.00071 | -0.0205 ± 0.012 | 0.0085 ± 0.0078 | -0.017 ± 0.02 | -0.0115 ± 0.011 | 0.0035 ± 0.0092 | -0.0315 ± 0.03 | 0.0375 ± 0.005
